Patent publication US8921368B2, “Pyrrolopyridazine JAK3 inhibitors and their use for the treatment of inflammatory and autoimmune diseases” (Bristol-Myers Squibb Company, priority 2011, dated 2014)

Tests used:
JAK3 = JAK3 (Homo sapiens (Human), UniProt P52333); assay: JAK3 Kinase Assay (Caliper / Filter protocols); assay type: biochemical; settings: JAK3 kinase inhibition; ATP 8 μM; read-out: LLE_JAK3_FB (IC50)
Procedure: JAK3 Kinase Assay Protocol (Caliper)
The assay reactions were performed in U-bottom 384-well plates. […] The reaction was initiated by the combination of GST-JAK3 enzyme with substrates and test compounds. The reactions were incubated at room temperature for 3 hours and terminated by adding 60 μl of 35 mM EDTA to each sample. […] Compounds were dissolved at 10 mM in dimethylsulfoxide (DMSO) and evaluated at eleven concentrations. IC50 values were derived by non-linear regression analysis.
JAK3 Kinase Assay Protocol (Filter)
Kinase reactions consisted of 5 ng of JAK3 enzyme, 30 uM CSKtide substrate, 0.2 μCi ^33P γ-ATP, 8 μM ATP in 30 μl kinase buffer (50 mM Hepes, pH 8.0, 10 mM MgCl2, 1 mM EGTA, 2 mM DTT). Reactions were incubated for 30 minutes at room temperature and stopped by the addition of cold trichloroacetic acid (TCA) to a final concentration of 15%. TCA precipitates were collected onto 384 well phosphocellulose filters (Millipore) using a Platemate to transfer the reaction mixture, washed on an EMBLA plate washer and the filters were quantitated using a TopCount 384-well liquid scintillation counter. […] Compounds were dissolved at 10 mM in dimethylsulfoxide (DMSO) and evaluated at six concentrations, each in triplicate. The final concentration of DMSO in the assay equaled 2%. IC50 values were derived by non-linear regression analysis.

JAK1 = JAK1 (Homo sapiens (Human), UniProt P23458); assay: JAK1 Kinase Assay Protocol; assay type: biochemical; settings: GST-JAK1; ATP 100 μM; Caliper LabChip; read-out: LLE_JAK1 (IC50)
JAK1, sequence (P23458 whole entry): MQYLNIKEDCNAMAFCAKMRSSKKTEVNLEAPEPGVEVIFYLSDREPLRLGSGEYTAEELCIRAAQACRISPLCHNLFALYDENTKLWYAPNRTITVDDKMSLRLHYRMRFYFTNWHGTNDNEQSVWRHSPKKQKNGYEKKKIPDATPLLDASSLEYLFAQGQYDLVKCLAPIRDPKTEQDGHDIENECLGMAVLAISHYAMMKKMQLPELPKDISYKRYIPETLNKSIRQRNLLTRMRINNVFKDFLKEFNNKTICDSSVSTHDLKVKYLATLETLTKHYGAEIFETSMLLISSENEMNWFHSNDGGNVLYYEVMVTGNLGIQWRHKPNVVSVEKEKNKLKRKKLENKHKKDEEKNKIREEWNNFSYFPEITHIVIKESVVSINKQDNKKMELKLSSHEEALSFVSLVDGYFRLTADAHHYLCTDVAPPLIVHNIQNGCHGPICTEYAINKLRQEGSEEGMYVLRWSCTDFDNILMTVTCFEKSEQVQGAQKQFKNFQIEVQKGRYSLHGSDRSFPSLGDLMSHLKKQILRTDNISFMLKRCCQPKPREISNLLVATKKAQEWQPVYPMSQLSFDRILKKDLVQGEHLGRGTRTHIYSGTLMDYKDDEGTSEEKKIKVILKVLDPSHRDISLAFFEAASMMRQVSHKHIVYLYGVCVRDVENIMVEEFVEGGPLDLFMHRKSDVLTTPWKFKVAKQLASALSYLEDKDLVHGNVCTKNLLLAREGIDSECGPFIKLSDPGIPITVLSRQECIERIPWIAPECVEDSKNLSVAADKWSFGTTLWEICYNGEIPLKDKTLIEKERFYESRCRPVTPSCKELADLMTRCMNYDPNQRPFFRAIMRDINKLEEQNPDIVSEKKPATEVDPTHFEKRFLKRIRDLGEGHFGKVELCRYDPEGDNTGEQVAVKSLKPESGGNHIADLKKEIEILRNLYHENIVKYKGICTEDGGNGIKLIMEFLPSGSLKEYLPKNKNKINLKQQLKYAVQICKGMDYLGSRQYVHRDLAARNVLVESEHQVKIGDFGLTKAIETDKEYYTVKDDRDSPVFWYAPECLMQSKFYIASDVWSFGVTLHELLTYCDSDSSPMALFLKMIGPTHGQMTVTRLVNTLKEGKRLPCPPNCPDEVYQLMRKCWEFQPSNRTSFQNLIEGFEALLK
Procedure: JAK1 Kinase Assay Protocol
The assay reactions were performed in U-bottom 384-well plates. The final assay volume was 30 μl prepared from 15 μl additions of enzyme and substrates (fluoresceinated peptide and ATP) and test compounds in assay buffer (20 mM HEPES pH 7.4, 10 mM MgCl2, 25 mM beta-glycerol phosphate, 0.015% Brij35 and 4 mM DTT). The reaction was initiated by the combination of GST-JAK1 enzyme with substrates and test compounds. The reactions were incubated at room temperature for 3 hours and terminated by adding 60 μl of 35 mM EDTA to each sample. […] The final concentration of reagents in the assays was: ATP, 100 μM; fluoresceinated peptide, 1.5 μM; GST-JAK1, 12.5 nM; and DMSO, 1.6%. […] Compounds were dissolved at 10 mM in dimethylsulfoxide (DMSO) and evaluated at eleven concentrations. IC50 values were derived by non-linear regression analysis.

JAK3, sequence (P52333 whole entry): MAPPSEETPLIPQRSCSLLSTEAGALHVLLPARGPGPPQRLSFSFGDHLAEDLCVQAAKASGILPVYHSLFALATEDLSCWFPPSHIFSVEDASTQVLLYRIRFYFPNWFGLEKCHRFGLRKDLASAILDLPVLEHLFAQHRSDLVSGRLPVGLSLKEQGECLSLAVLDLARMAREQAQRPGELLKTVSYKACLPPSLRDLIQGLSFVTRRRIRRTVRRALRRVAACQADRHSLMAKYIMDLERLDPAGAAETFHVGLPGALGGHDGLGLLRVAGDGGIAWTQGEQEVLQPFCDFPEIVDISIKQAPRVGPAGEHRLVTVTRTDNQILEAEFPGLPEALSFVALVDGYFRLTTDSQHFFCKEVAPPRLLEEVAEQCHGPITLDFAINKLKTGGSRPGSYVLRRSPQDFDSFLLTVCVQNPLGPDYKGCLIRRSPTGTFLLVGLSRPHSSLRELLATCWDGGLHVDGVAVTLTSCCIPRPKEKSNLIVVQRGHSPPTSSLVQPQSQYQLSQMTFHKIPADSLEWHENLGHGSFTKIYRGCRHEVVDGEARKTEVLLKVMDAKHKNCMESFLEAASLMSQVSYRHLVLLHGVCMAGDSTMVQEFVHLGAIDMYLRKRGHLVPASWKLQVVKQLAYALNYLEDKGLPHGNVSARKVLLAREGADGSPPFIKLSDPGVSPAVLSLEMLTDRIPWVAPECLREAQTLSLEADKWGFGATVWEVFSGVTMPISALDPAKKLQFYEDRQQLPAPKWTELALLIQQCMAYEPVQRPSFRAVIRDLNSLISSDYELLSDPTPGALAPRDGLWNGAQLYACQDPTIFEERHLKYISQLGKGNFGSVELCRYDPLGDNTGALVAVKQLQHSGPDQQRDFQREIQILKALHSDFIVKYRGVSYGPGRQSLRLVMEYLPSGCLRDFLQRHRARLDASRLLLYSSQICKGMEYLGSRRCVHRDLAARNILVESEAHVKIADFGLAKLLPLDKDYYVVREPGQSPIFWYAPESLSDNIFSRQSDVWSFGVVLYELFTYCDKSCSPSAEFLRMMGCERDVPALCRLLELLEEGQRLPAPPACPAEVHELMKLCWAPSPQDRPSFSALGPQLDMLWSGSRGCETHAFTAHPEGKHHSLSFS

| SMILES | IC50 (JAK3) [nM] | IC50 (JAK1) [nM] |
| --- | --- | --- |
| CC1(C)[C@H](Nc2c(C(N)=O)cnn3cc(N4CCOCC4=O)cc23)CC[C@]1(C)N [Example 312, 4-(((1R,3S)-3-amino-2,2,3-trimethylcyclopentyl)amino)-6-(3-oxo-4-morpholinyl)pyrrolo[1,2-b]pyridazine-3-carboxamide] | 44.2 | 69.4 |
| CC1(C)[C@H](Nc2c(C(N)=O)cnn3cc(NS(=O)(=O)c4ccc(Cl)cc4)cc23)CC[C@@]1(C)O (racemic) [Example 23] | 23.4 | 258 |
| C[C@]1(F)CCC[C@H]1Nc1c(C(N)=O)cnn2cc(N3CCOC3=O)cc12 [Example 317] | 6.8 | 13.6 |
| COc1ccc(S(=O)(=O)Nc2cc3c(N[C@@H]4CC[C@@](C)(O)C4(C)C)c(C(N)=O)cnn3c2)cc1 (racemic) [Example 24] | 34.2 | – |
| CC(=O)Nc1cc2c(N[C@@H]3CC[C@@](C)(O)C3(C)C)c(C(N)=O)cnn2c1 (racemic) [Example 7] | 0.9 | 8.2 |
| Cc1ccncc1-c1cc2c(N[C@@H]3CC[C@](C)(N)C3(C)C)c(C(N)=O)cnn2c1 [Example 195, 4-(((1R,3S)-3-amino-2,2,3-trimethylcyclopentyl)amino)-6-(4-methyl-3-pyridinyl)pyrrolo[1,2-b] pyridazine-3-carboxamide] | 6.1 | 1.3 |
| COc1cncc(-c2cc3c(N[C@@H]4CC[C@](C)(N)C4(C)C)c(C(N)=O)cnn3c2)c1 [Example 286, 4-(((1R,3S)-3-amino-2,2,3-trimethylcyclopentyl)amino)-6-(5-methoxy-3-pyridinyl)pyrrolo[1,2-b]pyridazine-3-carboxamide] | 5.5 | 4.1 |
| CC1(C)[C@H](Nc2c(C(N)=O)cnn3cc(-c4ccc(N5CCCC5)nc4)cc23)CC[C@]1(C)N [Example 213, 4-(((1R,3S)-3-amino-2,2,3-trimethylcyclopentyl)amino)-6-(6-(1-pyrrolidinyl)-3-pyridinyl)pyrrolo[1,2-b]pyridazine-3-carboxamide] | 9.5 | 17.3 |
| CC1(C)[C@H](Nc2c(C(N)=O)cnn3cc(-c4cccnc4)cc23)CC[C@]1(C)N [Example 192, 4-(((1R,3S)-3-amino-2,2,3-trimethylcyclopentyl)amino)-6-(3-pyridinyl) pyrrolo[1,2-b]pyridazine-3-carboxamide] | 0.5 | 0.7 |
| COc1ncc(-c2cc3c(N[C@@H]4CC[C@](C)(N)C4(C)C)c(C(N)=O)cnn3c2)cn1 [Example 278, 4-(((1R,3S)-3-amino-2,2,3-trimethylcyclopentyl)amino)-6-(2-methoxy-5-pyrimidinyl)pyrrolo[1,2-b]pyridazine-3-carboxamide] | 8.4 | 25.1 |
| CC1(C)[C@H](Nc2c(C(N)=O)cnn3cc(-c4ccc(C(=O)NC5CC5)cc4)cc23)CC[C@]1(C)N [Example 221, 4-(((1R,3S)-3-amino-2,2,3-trimethylcyclopentyl)amino)-6-(4-(cyclopropylcarbamoyl)phenyl)pyrrolo[1,2-b] pyridazine-3-carboxamide] | 1.6 | 0.7 |
| NC(=O)c1cnn2cc(-c3ccc(F)cc3)cc2c1NC12CC3CC(O)(CC(O)(C3)C1)C2 [Example 298, 4-((3,5-dihydroxyadamantan-1-yl)amino)-6-(4-fluorophenyl)pyrrolo [1,2-b]pyridazine-3-carboxamide] | 4.7 | 2.1 |
| CC1(C)[C@H](Nc2c(C(N)=O)cnn3cc(-c4ccc(F)nc4)cc23)CC[C@]1(C)C(N)=O [Example 339, 4-(((1R,3S)-3-carbamoyl-2,2,3-trimethylcyclopentyl)amino)-6-(6-fluoropyridin-3-yl)pyrrolo[1,2-b]pyridazine-3-carboxamide] | 1.9 | 2.2 |
| C[C@]1(O)CC[C@@H](Nc2c(C(N)=O)cnn3cc(-c4ccccc4C(N)=O)cc23)CC1 [Example 166, 6-(2-carbamoylphenyl)-4-((cis-4-hydroxy-4-methylcyclohexyl)amino)pyrrolo[1,2-b]pyridazine-3-carboxamide] | 33.6 | 72.4 |
| C[C@]1(F)CCC[C@H]1Nc1c(C(N)=O)cnn2cc(N3CCCC3=O)cc12 (racemic) [Example 159] | 0.5 | 3.8 |
| CC1(C)[C@H](Nc2c(C(N)=O)cnn3cc(-c4cccc5ncccc45)cc23)CC[C@]1(C)N [Example 272, 4-(((1R,3S)-3-amino-2,2,3-trimethylcyclopentyl)amino)-6-(5-quinolinyl)pyrrolo[1,2-b]pyridazine-3-carboxamide] | 13.8 | 5.4 |
| C[C@]1(O)CC[C@@H](Nc2c(C(N)=O)cnn3cc(-c4ccc(C#N)cc4)cc23)CC1 [Example 167, 6-(4-cyanophenyl)-4-((cis-4-hydroxy-4-methylcyclohexyl)amino)pyrrolo[1,2-b]pyridazine-3-carboxamide] | 1.6 | 6.1 |
| Cc1cccc(C)c1-c1cc2c(NC3C4CC5CC3CC(O)(C5)C4)c(C(N)=O)cnn2c1 (stereo not shown) [Example 177, 6-(2,6-dimethylphenyl)-4-((5-hydroxyadamantan-2-yl)amino)pyrrolo [1,2-b]pyridazine-3-carboxamide] | 524 | – |
| Cc1cccc(-c2cc3c(N[C@@H]4CCC[C@]4(C)F)c(C(N)=O)cnn3c2)c1 (racemic) [Example 72] | 0.3 | 1.3 |
| COc1ccc(-c2cc3c(N[C@@H]4CC[C@](C)(NS(C)(=O)=O)C4(C)C)c(C(N)=O)cnn3c2)cn1 [Example 336, 6-(6-methoxy-3-pyridinyl)-4-(((1R,3S)-2,2,3-trimethyl-3-((methylsulfonyl)amino)cyclopentyl)amino)pyrrolo[1,2-b]pyridazine-3-carboxamide] | 1.7 | 4.3 |
| CC1(C)[C@H](Nc2c(C(N)=O)cnn3cc(-c4ccccc4)cc23)CC[C@@]1(C)O [Example 293, 4-(((1R,3R)-3-hydroxy-2,2,3-trimethylcyclopentyl)amino)-6-phenylpyrrolo[1,2-b]pyridazine-3-carboxamide] | 0.2 | 0.1 |
| C[C@]1(F)CCC[C@H]1Nc1c(C(N)=O)cnn2cc(N3CCOCC3=O)cc12 (racemic) [Example 318] | 7.1 | 13.4 |
| Cn1nccc1-c1cc2c(NC3C4CC5CC3CC(O)(C5)C4)c(C(N)=O)cnn2c1 (stereo not shown) [Example 185, 4-((5-hydroxyadamantan-2-yl)amino)-6-(1-methyl-1H-pyrazol-5-yl) pyrrolo[1,2-b] pyridazine-3-carboxamide] | 6.2 | – |
| CN(C)C(=O)c1ccc(-c2cc3c(N[C@@H]4CC[C@](C)(N)C4(C)C)c(C(N)=O)cnn3c2)cc1 [Example 266, 4-(((1R,3S)-3-amino-2,2,3-trimethylcyclopentyl)amino)-6-(4-(dimethylcarbamoyl)phenyl)pyrrolo[1,2-b]pyridazine-3-carboxamide] | 0.8 | 0.6 |
| CC1(C)[C@H](Nc2c(C(N)=O)cnn3cc(NS(=O)(=O)c4ccccc4)cc23)CC[C@@]1(C)O (racemic) [Example 22] | 22.1 | 239 |
| Cc1ccc(-c2cc3c(NC4C5CC6CC4CC(O)(C6)C5)c(C(N)=O)cnn3c2)cc1 (stereo not shown) [Example 187, 4-((5-hydroxyadamantan-2-yl)amino)-6-(4-methylphenyl)pyrrolo [1,2-b]pyridazine-3-carboxamide] | – | 63.4 |
| C[C@]1(F)CCC[C@H]1Nc1c(C(N)=O)cnn2cc(-c3cncc4ccccc34)cc12 (racemic) [Example 68] | 46.4 | – |
| COc1cccc(-c2cc3c(NC4C5CC6CC4CC(O)(C6)C5)c(C(N)=O)cnn3c2)c1 (stereo not shown) [Example 176, 4-((5-hydroxyadamantan-2-yl)amino)-6-(3-methoxyphenyl)pyrrolo [1,2-b]pyridazine-3-carboxamide] | 8.9 | – |
| COc1ccccc1-c1cc2c(NC3C4CC5CC3CC(O)(C5)C4)c(C(N)=O)cnn2c1 (stereo not shown) [Example 178, 4-((5-hydroxyadamantan-2-yl)amino)-6-(2-methoxyphenyl)pyrrolo [1,2-b]pyridazine-3-carboxamide] | 1 | – |
| Cn1nccc1-c1cc2c(N[C@H]3CC[C@@](C)(O)CC3)c(C(N)=O)cnn2c1 [Example 162, 4-((4-hydroxy-4-methylcyclohexyl)amino)-6-(1-methyl-1H-pyrazol-5-yl)pyrrolo[1,2-b]pyridazine-3-carboxamide] | 62.7 | – |
